Assay results reported in the supplement of paper PMC10307832.

Experiments:
Assay in all cases: relative viability (nuclei count vs DMSO), 5 days (fraction); higher = more cells survive
NCI-H1623 = test system: NCI-H1623
How it was run: (§1)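 Cells from lung cancer lines were seeded into 1536-well plates and, one day later, dosed by pin tool. Treatments were either a single drug or a fixed dose of an anchor drug with five library-drug doses (not always all listed) in √10 steps. After 5 days, nuclei were stained in a one-step fixation (final 0.05% Triton X-100, 1% formaldehyde, 1 ug/ml Hoechst) and counted on 4× images, and relative viability is the treated-to-vehicle nuclei ratio, as the median of duplicate plates.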

NCI-H1355 = test system: NCI-H1355
How it was run: as §1

LCLC-97TM1 = test system: LCLC-97TM1
How it was run: as §1

NCI-H596 = test system: NCI-H596
How it was run: as §1

NCI-H2342 = test system: NCI-H2342
How it was run: as §1

NCI-H1437 = test system: NCI-H1437
How it was run: as §1

EBC-1 = test system: EBC-1
How it was run: as §1

IA-LM = test system: IA-LM
How it was run: as §1

Calu-6 = test system: Calu-6
How it was run: as §1

A549 = test system: A549
How it was run: as §1

NCI-H1703 = test system: NCI-H1703
How it was run: as §1

NCI-H1299 = test system: NCI-H1299
How it was run: as §1

NCI-H1648 = test system: NCI-H1648
How it was run: as §1

## Cc1csc(=NC2CCCCC2)n1/N=C/c1ccc(O)c(O)c1O [MIM1] + CCNC(=O)c1noc(-c2cc(C(C)C)c(O)cc2O)c1-c1ccc(CN2CCOCC2)cc1 [Luminespib] (partner 0.01 µM)
NCI-H1623; first compound 0.2 µM
  relative viability: 0.522
NCI-H1623; first compound 0.6325 µM
  relative viability: 0.472
NCI-H1623; first compound 2 µM
  relative viability: 0.437
NCI-H1623; first compound 6.325 µM
  relative viability: 0.446
NCI-H1623; first compound 20 µM
  relative viability: 0.404
NCI-H1355; first compound 0.2 µM
  relative viability: 0.698
NCI-H1355; first compound 0.6325 µM
  relative viability: 0.591
NCI-H1355; first compound 2 µM
  relative viability: 0.726
NCI-H1355; first compound 6.325 µM
  relative viability: 0.659
NCI-H1355; first compound 20 µM
  relative viability: 0.391
LCLC-97TM1; first compound 0.2 µM
  relative viability: 0.783
LCLC-97TM1; first compound 0.6325 µM
  relative viability: 0.733
LCLC-97TM1; first compound 2 µM
  relative viability: 0.755
LCLC-97TM1; first compound 6.325 µM
  relative viability: 0.512
LCLC-97TM1; first compound 20 µM
  relative viability: 0.238
NCI-H596; first compound 0.2 µM
  relative viability: 1.03
NCI-H596; first compound 0.6325 µM
  relative viability: 0.879
NCI-H596; first compound 2 µM
  relative viability: 0.939
NCI-H596; first compound 6.325 µM
  relative viability: 0.918
NCI-H596; first compound 20 µM
  relative viability: 0.486
NCI-H2342; first compound 0.2 µM
  relative viability: 0.739
NCI-H2342; first compound 0.6325 µM
  relative viability: 0.723
NCI-H2342; first compound 2 µM
  relative viability: 0.642
NCI-H2342; first compound 6.325 µM
  relative viability: 0.624
NCI-H2342; first compound 20 µM
  relative viability: 0.985
NCI-H1437; first compound 0.2 µM
  relative viability: 1.07
NCI-H1437; first compound 0.6325 µM
  relative viability: 1.1
NCI-H1437; first compound 2 µM
  relative viability: 0.992
NCI-H1437; first compound 6.325 µM
  relative viability: 0.846
NCI-H1437; first compound 20 µM
  relative viability: 0.452

## CN1CCN(CCOc2cc(OC3CCOCC3)c3c(Nc4c(Cl)ccc5c4OCO5)ncnc3c2)CC1 [Saracatinib] + O=C(c1cc(Cc2n[nH]c(=O)c3ccccc23)ccc1F)N1CCN(C(=O)C2CC2)CC1 [Olaparib] (partner 8 µM)
EBC-1; first compound 0.02 µM
  relative viability: 0.701
EBC-1; first compound 0.2 µM
  relative viability: 0.709
EBC-1; first compound 0.6325 µM
  relative viability: 0.729
EBC-1; first compound 2 µM
  relative viability: 0.734
IA-LM; first compound 0.02 µM
  relative viability: 0.856
IA-LM; first compound 0.2 µM
  relative viability: 0.884
IA-LM; first compound 0.6325 µM
  relative viability: 1.06
IA-LM; first compound 2 µM
  relative viability: 0.76
Calu-6; first compound 0.02 µM
  relative viability: 0.53
Calu-6; first compound 0.2 µM
  relative viability: 0.51
Calu-6; first compound 0.6325 µM
  relative viability: 0.529
Calu-6; first compound 2 µM
  relative viability: 0.449
NCI-H1355; first compound 0.02 µM
  relative viability: 0.796
NCI-H1355; first compound 0.2 µM
  relative viability: 0.692
NCI-H1355; first compound 0.6325 µM
  relative viability: 0.817
NCI-H1355; first compound 2 µM
  relative viability: 0.706
A549; first compound 0.02 µM
  relative viability: 0.338
A549; first compound 0.2 µM
  relative viability: 0.174
A549; first compound 0.6325 µM
  relative viability: 0.341
A549; first compound 2 µM
  relative viability: 0.305
LCLC-97TM1; first compound 0.02 µM
  relative viability: 0.494
LCLC-97TM1; first compound 0.2 µM
  relative viability: 0.291
LCLC-97TM1; first compound 0.6325 µM
  relative viability: 0.567
LCLC-97TM1; first compound 2 µM
  relative viability: 0.32
NCI-H1703; first compound 0.02 µM
  relative viability: 0.425
NCI-H1703; first compound 0.2 µM
  relative viability: 0.393
NCI-H1703; first compound 0.6325 µM
  relative viability: 0.172
NCI-H1703; first compound 2 µM
  relative viability: 0.158
NCI-H596; first compound 0.02 µM
  relative viability: 0.727
NCI-H596; first compound 0.2 µM
  relative viability: 0.589
NCI-H596; first compound 0.6325 µM
  relative viability: 0.684
NCI-H596; first compound 2 µM
  relative viability: 0.546
NCI-H1299; first compound 0.02 µM
  relative viability: 0.923
NCI-H1299; first compound 0.2 µM
  relative viability: 0.952
NCI-H1299; first compound 0.6325 µM
  relative viability: 1.12
NCI-H1299; first compound 2 µM
  relative viability: 0.92
NCI-H1648; first compound 0.02 µM
  relative viability: 0.882
NCI-H1648; first compound 0.2 µM
  relative viability: 0.678
NCI-H1648; first compound 0.6325 µM
  relative viability: 1.75
NCI-H1648; first compound 2 µM
  relative viability: 0.417
NCI-H2342; first compound 0.02 µM
  relative viability: 0.55
NCI-H2342; first compound 0.2 µM
  relative viability: 0.312
NCI-H2342; first compound 0.6325 µM
  relative viability: 0.434
NCI-H2342; first compound 2 µM
  relative viability: 0.451
NCI-H1437; first compound 0.02 µM
  relative viability: 0.68
NCI-H1437; first compound 0.2 µM
  relative viability: 0.648
NCI-H1437; first compound 0.6325 µM
  relative viability: 0.618
NCI-H1437; first compound 2 µM
  relative viability: 0.658

## Cc1cn(-c2cc(NC(=O)c3ccc(C)c(Nc4nccc(-c5cccnc5)n4)c3)cc(C(F)(F)F)c2)cn1 [Nilotinib] + Cc1nc(Nc2ncc(C(=O)Nc3c(C)cccc3Cl)s2)cc(N2CCN(CCO)CC2)n1 [Dasatinib] (partner 0.075 µM)
NCI-H1623; first compound 0.001 µM
  relative viability: 0.597
NCI-H1623; first compound 0.003162 µM
  relative viability: 0.531
NCI-H1623; first compound 0.01 µM
  relative viability: 0.601
NCI-H1623; first compound 0.03162 µM
  relative viability: 0.508
NCI-H1623; first compound 0.1 µM
  relative viability: 0.408
NCI-H1355; first compound 0.001 µM
  relative viability: 0.653
NCI-H1355; first compound 0.003162 µM
  relative viability: 0.751
NCI-H1355; first compound 0.01 µM
  relative viability: 0.556
NCI-H1355; first compound 0.03162 µM
  relative viability: 0.46
NCI-H1355; first compound 0.1 µM
  relative viability: 0.333
LCLC-97TM1; first compound 0.001 µM
  relative viability: 0.855
LCLC-97TM1; first compound 0.003162 µM
  relative viability: 0.896
LCLC-97TM1; first compound 0.01 µM
  relative viability: 0.971
LCLC-97TM1; first compound 0.03162 µM
  relative viability: 0.654
LCLC-97TM1; first compound 0.1 µM
  relative viability: 0.617
NCI-H596; first compound 0.001 µM
  relative viability: 0.485
NCI-H596; first compound 0.003162 µM
  relative viability: 0.705
NCI-H596; first compound 0.01 µM
  relative viability: 0.507
NCI-H596; first compound 0.03162 µM
  relative viability: 0.504
NCI-H596; first compound 0.1 µM
  relative viability: 0.349
NCI-H2342; first compound 0.001 µM
  relative viability: 0.277
NCI-H2342; first compound 0.003162 µM
  relative viability: 0.303
NCI-H2342; first compound 0.01 µM
  relative viability: 0.302
NCI-H2342; first compound 0.03162 µM
  relative viability: 0.273
NCI-H2342; first compound 0.1 µM
  relative viability: 0.298
NCI-H1437; first compound 0.001 µM
  relative viability: 0.366
NCI-H1437; first compound 0.003162 µM
  relative viability: 0.327
NCI-H1437; first compound 0.01 µM
  relative viability: 0.373
NCI-H1437; first compound 0.03162 µM
  relative viability: 0.296
NCI-H1437; first compound 0.1 µM
  relative viability: 0.164
